The source of these data is patent US4038401A, “Novel indole derivative” (John Wyeth & Brother Limited, priority 1976, dated 1977).

For series [1], the system named is rats. Format: in vivo, rat. Particulars: for Duration of sedation: 50 mg/kg; for Increase in comparative sedation: oral 10, 25 or 50 mg/kg, perphenazine and haloperidol rated at 10. As to the method:
Twelve rats of each type were split into […] and dosed orally with 10, 25 or 50 mg/kg of the test compound in a vehicle comprising hydroxymethylcellulose (0.5%) in (0.9% saline). Each rat was housed singly, after dosing and observed closely for 2 hours, then intermittently for a further four hours, behavioural changes being noted.
The animals were left at least 72 hours before re-dosing to ensure the disappearance of residual hypotensive and sedative effects.

The test system of series [2] is rats rendered hypertensive. As to the kind of experiment: Anti-hypertensive activity in renal hypertensive rats (systolic pressure). Format: in vivo, rat. As to conditions: 12 rats. As to the method: Anti-hypertensive activity is determined by the following procedure:
Male or female rats are rendered hypertensive by applying a figure of 8 ligature around one kidney and contralateral nephrectomy. Blood pressure stabilises at a hypertensive level after 6 weeks. Systolic pressure is measured indirectly using an E and M Pneumatic Tail Pulse Transducer and a Devices M2 recorder. A control group of rats is run with each group reacted with drug. Each group usually consists of six rats. Drugs are usually administered by the IP or oral routes. Pressures are read prior to drug administration and at 2 and 24 hours thereafter.
Blood pressure is expressed as % of control values at x hours after an oral dose of 25 mg/kg. In the test 12 rats were used instead of the usual 6.

Series [3] can be described thus: Hypotensive and anti-hypertensive activity (statement in words). Format: in vivo. As to conditions: compared with indoramin.
The nature of series [4]: in vivo. Particulars: mouse.
Series [5] deals with laboratory animals. As to the kind of experiment: Toxicity and sedation, tests in laboratory animals (statement in words). As to conditions: compared with indoramin.
[6] abbreviates: normotensive rat (male and female).
The mark [7] stands for this setting: renal hypertensive rat (female).
The mark [8] stands for this setting: spontaneous hypertensive rat (male).
[9] abbreviates: 2 hours after oral dose of 25 mg/kg.
Where [10] appears, read: 6 hours after oral dose of 25 mg/kg.
Where [11] appears, read: 24 hours after oral dose of 25 mg/kg.

Molecules are shown by their SMILES. Where two headings read alike, the source gives them in different places.

For `O=C(NC1CCN(CCCC(=O)c2c[nH]c3ccccc23)CC1)c1ccccc1` [4-Benzamido-1-[4-(indol-3-yl)-4-oxobutyl]piperidine], the Duration of sedation in series [1] (setting [6]), in series [1] (setting [7]) and in series [1] (setting [8]) was 6 h throughout. In addition, the “Approximate sedative potency ratio” value in series [1] (setting [6]), in series [1] (setting [7]) and in series [1] (setting [8]) was 1 each time. Moreover, the “Increase in comparative sedation” value came out at 1 in series [1] (normotensive rats), 2 in series [1] (renal hypertensive rats) and 1 in series [1] (spontaneously hypertensive rats). The “Blood pressure expressed as % of control values” in series [2] (setting [9]) is listed as 60.9 % of control values; in series [2] (setting [10]), 62.0 % of control values; in series [2] (setting [11]), 99.0 % of control values. In series [3], the “hypotensive and anti-hypertensive activity” value is on record as “comparable to that of indoramin”. Also, the LD50 was 542 mg/kg in series [4] (ip) and greater than 4000 mg/kg in series [4] (po). Moreover, the results for the LD50 at 24 h in series [4] (ip) and in series [4] (po) were 1000 mg/kg and greater than 4000 mg/kg, respectively. Moreover, the sedation result in series [5] is given as “much less sedative”. For the same compound, in series [5], the toxicity entry is given as “much less toxic”.

In the case of `O=C(NC1CCN(CCc2c[nH]c3ccccc23)CC1)c1ccccc1` [Indoramin, 3-[2(4-benzamidopiperid-1-xl)ethyl] indole, reference compound], the “Blood pressure expressed as % of control values” in series [2] (setting [9]) is given as 78.0 % of control values; in series [2] (setting [10]), 76.0 % of control values; in series [2] (setting [11]) it was 98.0 % of control values.

With `O=C(CCCN1CCC(O)(c2ccc(Cl)cc2)CC1)c1ccc(F)cc1` [haloperidol, reference compound], the “Sedation rating of comparison tranquillisers” value in series [1] (rats, reference rating of the scale) came to 10.

As to `OCCN1CCN(CCCN2c3ccccc3Sc3ccc(Cl)cc32)CC1` [perphenazine, reference compound], in series [1] (rat, in vivo), the “Sedation rating of comparison tranquillisers” value amounted to 10.
